Measurements from publication PMC7211198, “Phase 1b study of a small molecule antagonist of human chemokine (C-C motif) receptor 2 (PF-04136309) in combination with nab-paclitaxel/gemcitabine in first-line treatment of metastatic pancreatic ductal adenocarcinoma” (Investigational New Drugs, 2019).

Assay: Safety and tolerability (TEAEs, SAEs, DLTs, RP2D) in phase Ib study
Type: in vivo, human
From the text: Safety assessments included collection of adverse events (AEs), serious AEs (SAEs), vital signs and physical examination, electrocardiogram (12-lead), laboratory assessments, including pregnancy test, and verification of concomitant treatments. A patient was considered as DLT-evaluable if the patient experienced a DLT or if otherwise, in the absence of a DLT, the patient received at least 85% of the planned doses of each study drug in the first 28-day cycle. DLTs were defined as any of the following events occurring in the first cycle of treatment (days 1 through 28) and attributed (i.e., judged to be at least possibly related) to the combination of PF-04136309 plus nab-paclitaxel/gemcitabine, where relationship with the combination could not be ruled out. DLTs were hematologic events of grade 4 neutropenia lasting >5 days; febrile neutropenia; grade ≥ 3 neutropenic infection; grade ≥ 3 thrombocytopenia with grade ≥ 2 bleeding; grade 4 thrombocytopenia; and nonhematologic events of grade 3 toxicities. Exceptions included nausea and vomiting responding to prophylaxis and/or treatment and lasting <7 days from each chemotherapy infusion period; diarrhea responding to treatment and lasting <7 days; grade 3 fatigue lasting <7 days; grade 3 QT interval corrected for heart rate prolongation (>500 msec) persisting after correction of any reversible causes; and/or grade 3 aspartate aminotransferase (AST) and/or alanine aminotransferase (ALT) increase lasting ≤7 days. All grade 4 toxicities and a delay of >2 weeks in receiving the next scheduled cycle due to persistent treatment-related toxicities were considered DLTs. AEs meeting DLT criteria in the dose-expansion phase included grade 3 events of diarrhea, hypokalemia, and dysesthesia and grade 4 hypoxia. […] AEs were graded according to the National Cancer Institute Common Terminology Criteria for Adverse Events, version 4.03.

[1] = 500 mg BID + nab-P/Gem, treatment-related SAE
[2] = 750 mg BID + nab-P/Gem, n = 4, treatment-related TEAE
[3] = 750 mg BID + nab-P/Gem, all-causality SAE
[4] = 750 mg BID + nab-P/Gem, all-causality TEAE

## O=C(NCC(=O)N1CC[C@H](N[C@H]2CC[C@@](O)(c3ccc(-c4ncccn4)cn3)CC2)C1)c1cccc(C(F)(F)F)c1 [PF-04136309]
[1]
  Any SAE, Grade 3: 3 (17.6) n (%)
  Any SAE, Grade 4: 1 (5.9) n (%)
  Any SAE, Grade 5: 1 (5.9) n (%)
  Any SAE, Total: 5 (29.4) n (%)
  Hypoxia, Grade 1: 0 n (%)
  Hypoxia, Grade 2: 0 n (%)
  Hypoxia, Grade 3: 0 n (%)
  Hypoxia, Grade 4: 1 (5.9) n (%)
  Hypoxia, Grade 5: 0 n (%)
  Hypoxia, Total: 1 (5.9) n (%)
  Pneumonia, Grade 1: 0 n (%)
  Pneumonia, Grade 2: 0 n (%)
  Pneumonia, Grade 3: 0 n (%)
  Pneumonia, Grade 4: 0 n (%)
  Pneumonia, Grade 5: 1 (5.9) n (%)
  Pneumonia, Total: 1 (5.9) n (%)
  Pneumonitis, Grade 1: 0 n (%)
  Pneumonitis, Grade 2: 0 n (%)
  Pneumonitis, Grade 3: 3 (17.6) n (%)
  Pneumonitis, Grade 4: 0 n (%)
  Pneumonitis, Grade 5: 0 n (%)
  Pneumonitis, Total: 3 (17.6) n (%)
  Pyrexia, Grade 1: 0 n (%)
  Pyrexia, Grade 2: 1 (5.9) n (%)
  Pyrexia, Grade 3: 0 n (%)
  Pyrexia, Grade 4: 0 n (%)
  Pyrexia, Grade 5: 0 n (%)
  Pyrexia, Total: 1 (5.9) n (%)
500 mg BID starting dose, three of 17 patients, four DLTs
  DLT events: grade 3 dysesthesia, diarrhea, and hypokalemia and one event of grade 4 hypoxia
750 mg BID + nab-P/Gem, n = 4, first cycle (days 1 through 28)
  DLT: 1 (25) n (%)
[2]
  ALT increase, grade ≥3: 1 (25.0) n (%)
  AST increase, grade ≥3: 1 (25.0) n (%)
  Anemia, grade ≥3: 0 n (%)
  Fatigue, grade ≥3: 0 n (%)
  Leukopenia, grade ≥3: 3 (75.0) n (%)
  Lymphopenia, grade ≥3: 1 (25.0) n (%)
  Neutropenia, grade ≥3: 3 (75.0) n (%)
  Pneumonitis, grade ≥3: 0 n (%)
[3]
  Any SAE, Grade 1: 0 n (%)
  Any SAE, Grade 2: 1 (25.0) n (%)
  Any SAE, Grade 3: 2 (50.0) n (%)
  Any SAE, Grade 4: 0 n (%)
  Any SAE, Grade 5: 0 n (%)
  Any SAE, Total: 3 (75.0) n (%)
  Appetite decrease, Grade 1: 0 n (%)
  Appetite decrease, Grade 2: 0 n (%)
  Appetite decrease, Grade 3: 1 (25.0) n (%)
  Appetite decrease, Grade 4: 0 n (%)
  Appetite decrease, Grade 5: 0 n (%)
  Appetite decrease, Total: 1 (25.0) n (%)
  Cellulitis, Grade 1: 0 n (%)
  Cellulitis, Grade 2: 0 n (%)
  Cellulitis, Grade 3: 1 (25.0) n (%)
  Cellulitis, Grade 4: 0 n (%)
  Cellulitis, Grade 5: 0 n (%)
  Cellulitis, Total: 1 (25.0) n (%)
  Cognitive disorder, Grade 1: 0 n (%)
  Cognitive disorder, Grade 2: 0 n (%)
  Cognitive disorder, Grade 3: 1 (25.0) n (%)
  Cognitive disorder, Grade 5: 0 n (%)
  Cognitive disorder, Total: 1 (25.0) n (%)
  Gastroesophageal reflux disease, Grade 1: 0 n (%)
  Gastroesophageal reflux disease, Grade 2: 0 n (%)
  Gastroesophageal reflux disease, Grade 3: 1 (25.0) n (%)
  Gastroesophageal reflux disease, Grade 4: 0 n (%)
  Gastroesophageal reflux disease, Grade 5: 0 n (%)
  Gastroesophageal reflux disease, Total: 1 (25.0) n (%)
  Rash, Grade 1: 0 n (%)
  Rash, Grade 2: 1 (25.0) n (%)
  Rash, Grade 3: 0 n (%)
  Rash, Grade 4: 0 n (%)
  Rash, Grade 5: 0 n (%)
  Rash, Total: 1 (25.0) n (%)
[4]
  ALT increase, Grade 1: 0 n (%)
  ALT increase, Grade 2: 2 (50.0) n (%)
  ALT increase, Grade 3: 1 (25.0) n (%)
  ALT increase, Grade 4: 0 n (%)
  ALT increase, Grade 5: 0 n (%)
  ALT increase, Total: 3 (75.0) n (%)
  Alopecia, Grade 1: 2 (50.0) n (%)
  Alopecia, Grade 2: 1 (25.0) n (%)
  Alopecia, Grade 3: 0 n (%)
  Alopecia, Grade 4: 0 n (%)
  Alopecia, Grade 5: 0 n (%)
  Alopecia, Total: 3 (75.0) n (%)
  Anemia, Grade 1: 0 n (%)
  Anemia, Grade 2: 2 (50.0) n (%)
  Anemia, Grade 3: 0 n (%)
  Anemia, Grade 4: 0 n (%)
  Anemia, Grade 5: 0 n (%)
  Anemia, Total: 2 (50.0) n (%)
  Any AE, Grade 1: 0 n (%)
  Any AE, Grade 2: 0 n (%)
  Any AE, Grade 3: 4 (100.0) n (%)
  Any AE, Grade 4: 0 n (%)
  Any AE, Grade 5: 0 n (%)
  Any AE, Total: 4 (100.0) n (%)
  Appetite decrease, Grade 1: 1 (25.0) n (%)
  Appetite decrease, Grade 2: 0 n (%)
  Appetite decrease, Grade 3: 1 (25.0) n (%)
  Appetite decrease, Grade 4: 0 n (%)
  Appetite decrease, Grade 5: 0 n (%)
  Appetite decrease, Total: 2 (50.0) n (%)
  Cellulitis, Grade 1: 0 n (%)
  Cellulitis, Grade 2: 1 (25.0) n (%)
  Cellulitis, Grade 3: 1 (25.0) n (%)
  Cellulitis, Grade 4: 0 n (%)
  Cellulitis, Grade 5: 0 n (%)
  Cellulitis, Total: 2 (50.0) n (%)
  Chills, Grade 1: 2 (50.0) n (%)
  Chills, Grade 2: 0 n (%)
  Chills, Grade 3: 0 n (%)
  Chills, Grade 4: 0 n (%)
